Results as given in paper PMC7177216, “A Novel Highly Sensitive Method for Measuring Inflammatory Neural-Derived APC Activity in Glial Cell Lines, Mouse Brain and Human CSF” (International Journal of Molecular Sciences, 2020).

What was measured:
bovine FXa = target: T1, bovine FXa (Bos taurus, UniProt P00743); details: 1 µM inhibitor; 20 µM substrate; 1 mM CaCl2, 50 mM Tris-HCl pH 8.0; 37 °C
T1 construct: gene F10

Bovine thrombin = target: T2, Bovine thrombin (Bos taurus, UniProt P00735); details: 1 µM inhibitor; 20 µM substrate; 1 mM CaCl2, 50 mM Tris-HCl pH 8.0; 37 °C
T2 construct: gene F2

T1 sequence (P00743 41-180): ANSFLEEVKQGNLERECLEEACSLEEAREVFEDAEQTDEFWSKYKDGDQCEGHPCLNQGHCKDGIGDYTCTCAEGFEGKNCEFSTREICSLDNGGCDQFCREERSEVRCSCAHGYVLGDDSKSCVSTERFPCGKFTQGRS
T1 sequence (P00743 234-492): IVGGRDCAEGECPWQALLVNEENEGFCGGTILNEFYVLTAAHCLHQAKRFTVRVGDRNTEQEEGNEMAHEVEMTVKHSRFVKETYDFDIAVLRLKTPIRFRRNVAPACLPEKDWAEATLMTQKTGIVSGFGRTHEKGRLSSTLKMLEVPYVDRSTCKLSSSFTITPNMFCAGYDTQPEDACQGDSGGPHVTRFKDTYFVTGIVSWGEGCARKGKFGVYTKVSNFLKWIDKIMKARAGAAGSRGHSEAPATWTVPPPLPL

Compound: N=C(N)c1ccc(CC(NC(=O)CNS(=O)(=O)c2ccc3ccccc3c2)C(=O)N2CCCCC2)cc1 (centres unmarked) [NAPAP]
- inhibition of cleavage of Pyr-Pro-Arg-AMC (fluorescence) (bovine FXa): FXa activity was fully blocked by apixaban and partially blocked by NAPAP
- inhibition of cleavage of Pyr-Pro-Arg-AMC (fluorescence) (Bovine thrombin): cleavage of the substrate by thrombin was fully blocked by NAPAP
